Values belong to the compound of their own block, whether it stands above or below them.
Key:
[1] = test system: Staphylococcus aureus; assay: Antibiofilm activity against methicillin-resistant Staphylococcus aureus ATCC BAA-44; type: functional, organism-based
[2] = biological target: T1, Sortase A (Staphylococcus aureus, UniProt Q9S446); assay: Inhibition of Staphylococcus aureus SrtA
T1 sequence (Q9S446 whole entry): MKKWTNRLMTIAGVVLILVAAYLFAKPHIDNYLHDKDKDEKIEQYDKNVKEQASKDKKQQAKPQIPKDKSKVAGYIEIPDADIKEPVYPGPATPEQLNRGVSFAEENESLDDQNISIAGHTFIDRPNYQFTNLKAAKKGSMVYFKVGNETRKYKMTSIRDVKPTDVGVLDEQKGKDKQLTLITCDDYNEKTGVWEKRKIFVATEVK

[3] = test system: Staphylococcus aureus; assay: Antibiofilm activity against Staphylococcus aureus at 100 uM relative to control; type: functional
[4] = test system: Staphylococcus aureus; assay: Antibiofilm activity against Staphylococcus aureus ATCC 29213 at 1.5 ug/ml relative to control; type: functional
[5] = test system: Staphylococcus epidermidis; assay: Antibiofilm activity against Staphylococcus epidermidis DSM 3269 at 1.5 ug/ml relative to control; type: functional
[6] = test system: Staphylococcus epidermidis; assay: Antibiofilm activity against Staphylococcus epidermidis RP62A at 1.5 ug/ml relative to control; type: functional
[7] = test system: Staphylococcus aureus; assay: Antibiofilm activity against Staphylococcus aureus isolate 702 at 1.5 ug/ml relative to control; type: functional
[8] = test system: Staphylococcus aureus; assay: Antibiofilm activity against Staphylococcus aureus ATCC 25923 at 1.5 ug/ml relative to control; type: functional
[9] = test system: Staphylococcus aureus; assay: Antibiofilm activity against Staphylococcus aureus isolate 657 at 1.5 ug/ml relative to control; type: functional
[10] = test system: Staphylococcus aureus; assay: Antibiofilm activity against Staphylococcus aureus ATCC 29213; type: functional, organism-based
[11] = test system: Staphylococcus aureus; assay: Antibiofilm activity against methicillin-resistant Staphylococcus aureus; type: functional, organism-based; conditions: Staphylococcus aureus
[12] = test system: Staphylococcus aureus; assay: Antibiofilm activity against Staphylococcus aureus BAA-1026; type: functional
[13] = test system: Enterococcus faecalis; assay: Antibiofilm activity against Enterococcus faecalis ATCC 29212; type: functional
[14] = test system: Pseudomonas aeruginosa; assay: Antibiofilm activity against Pseudomonas aeruginosa PA14 assessed as inhibition of biofilm dispersion; type: functional, organism-based
[15] = test system: Pseudomonas aeruginosa; assay: Antibiofilm activity against Pseudomonas aeruginosa PAO1 assessed as inhibition of biofilm dispersion; type: functional, organism-based
[16] = test system: Pseudomonas aeruginosa; assay: Antibiofilm activity against Pseudomonas aeruginosa PAO1; type: functional, organism-based
[17] = test system: Pseudomonas aeruginosa; assay: Antibiofilm activity against Pseudomonas aeruginosa PA14; type: functional, organism-based
[18] = test system: Staphylococcus aureus; assay: Antibiofilm activity against methicillin-resistant Staphylococcus aureus BAA-1770; type: functional, organism-based
[19] = test system: Staphylococcus aureus; assay: Antibiofilm activity against methicillin-resistant Staphylococcus aureus ATCC 43300; type: functional, organism-based
[20] = test system: Staphylococcus aureus; assay: Antibiofilm activity against methicillin-resistant Staphylococcus aureus BAA-1685; type: functional, organism-based
[21] = test system: Staphylococcus aureus; assay: Antibiofilm activity against methicillin-resistant Staphylococcus aureus BAA-1707; type: functional
[22] = test system: Staphylococcus aureus; assay: Antibiofilm activity against methicillin-resistant Staphylococcus aureus isolate 2; type: functional
[23] = test system: Acinetobacter baumannii; assay: Antibiofilm activity against Acinetobacter baumannii preformed biofilms; type: functional, organism-based
[24] = test system: Bordetella bronchiseptica; assay: Antibiofilm activity against Bordetella bronchiseptica RB50 assessed as inhibition of biofilm dispersion; type: functional, organism-based
[25] = test system: Acinetobacter baumannii; assay: Antibiofilm activity against Acinetobacter baumannii; type: functional, organism-based

SMILES: O=C1NC(C(Cl)(Cl)Cc2ccccc2)O/C1=C\c1ccc(C(F)(F)F)cc1 (stereo not given)
- IC50 [1]: 1.2 µM

SMILES: CC(=O)/C(=N\Nc1ccc([N+](=O)[O-])cc1)C(=O)O
- IC50 [2]: 50 to 92 µM
- Activity [3]: 39.2 - 68.3%

SMILES: O=C(c1cc(Br)ccc1O)c1[nH]c(Br)c(Br)c1Br
- Activity [4]: >60%
- Activity [5]: >60%
- Activity [6]: >60%
- Activity [7]: >60%
- Activity [8]: >60%
- Activity [9]: >60%

- IC50 [10]: 1.7 µM
SMILES: CCOC(=O)/C(=N/Nc1ccc(Cl)c(Cl)c1)C(=O)c1cc(C)nn1CC

SMILES: CCCCCCCCCCCCCCNC(=O)Cn1cc(C[C@@]23CNC[C@@H]2Nc2ccccc23)nn1
- IC50 [11]: 5.4 µM

SMILES: Cc1sc(-c2ccc(-c3csc(-c4ccccc4)n3)cc2)nc1-c1ccccc1
- MBEC [12]: 1000 µg/mL
- MBEC [13]: 4 µg/mL

SMILES: c1ccc(-c2nc(-c3ccc(-c4nc(-c5cccc6ccccc56)cs4)cc3)cs2)cc1
- MBEC [12]: 250 µg/mL
- MBEC [13]: 4 µg/mL

SMILES: O=C(c1cc(Br)ccc1O)c1[nH]c(Cl)c(Br)c1Br
- Activity [4]: >60%
- Activity [5]: >60%
- Activity [6]: >60%
- Activity [7]: >60%
- Activity [8]: >60%
- Activity [9]: >60%

SMILES: N#Cc1ccc(-c2csc(-c3ccc(-c4csc(-c5ccccc5)n4)cc3)n2)cc1
- MBEC [12]: 250 µg/mL
- MBEC [13]: 2 µg/mL

SMILES: O=C(c1cc(Br)c(F)[nH]1)c1cc(Cl)cc(Cl)c1O
- Activity [4]: >60%
- Activity [5]: >60%
- Activity [6]: >60%
- Activity [7]: >60%
- Activity [8]: >60%
- Activity [9]: >60%

- IC50 [14]: 2.26 µM
- IC50 [15]: 2.8 µM
- IC50 [16]: 2.84 µM
- IC50 [17]: 2.26 µM
SMILES: CCCCCCCCCCCCNC(=O)CCCc1c[nH]c(N)n1

SMILES: CCCCCc1ccc(C(=O)NCCn2cc(CCCCCc3c[nH]c(NCc4ccc(CCCC)cc4)n3)nn2)cc1
- IC50 [18]: 5.9 µM
- IC50 [19]: 4.4 µM
- IC50 [20]: 5.5 µM

SMILES: CCCCc1ccc(C(=O)NCCn2cc(CCCCc3[nH]c(N)nc3-c3cnc4ccccc4c3)nn2)cc1
- IC50 [11]: 4.2 µM

- IC50 [10]: 0.8 µM
SMILES: Cc1cc(C(=O)/C(=N\Nc2ccc(Cl)c(Cl)c2)C(=O)O)no1

SMILES: Cc1ccc2c(Br)cc(Br)c(O)c2n1 [BROQUINALDOL]
- MBEC [21]: 93 µM
- MBEC [22]: 188 µM

SMILES: CCCCOc1ccc(/C=C(\C)Cn2cc(CCCCCc3c[nH]c(N)n3)nn2)cc1
- EC50 [23]: 44.7 to 59.6 µM
- EC50 [11]: 4.5 to 9.8 µM

SMILES: O=[N+]([O-])c1ccc(-c2csc(-c3ccc(-c4csc(-c5ccccc5)n4)cc3)n2)cc1
- MBEC [12]: >1000 µg/mL
- MBEC [13]: 2 µg/mL

SMILES: O=C(c1cc(Cl)cc(Cl)c1O)c1[nH]c(Br)c(Br)c1Br
- Activity [4]: >60%
- Activity [5]: >60%
- Activity [6]: >60%
- Activity [7]: >60%
- Activity [8]: >60%
- Activity [9]: >60%

SMILES: Nc1nc(CCCNC(=O)c2cc(Br)c(Br)n2CCc2ccccc2)c[nH]1
- IC50 [14]: 22.9 µM
- IC50 [24]: 22.5 µM

SMILES: COc1cc(N/N=C(\C(C)=O)C(=O)O)cc(OC)c1OC
- IC50 [2]: 50 to 92 µM
- Activity [3]: 39.2 - 68.3%

SMILES: O=C(c1cc(Br)cc(Br)c1O)c1[nH]c(Br)c(Br)c1Br
- Activity [4]: >60%
- Activity [5]: >60%
- Activity [6]: >60%
- Activity [7]: >60%
- Activity [8]: >60%
- Activity [9]: >60%

SMILES: CCCCCCCc1ccc(NC(=O)CCn2cc(C[C@@]34CNC[C@@H]3Nc3ccccc34)nn2)cc1
- IC50 [11]: 2.8 µM

SMILES: O=C(c1cc(Br)ccc1O)c1[nH]c(Br)c(Cl)c1Br
- Activity [4]: >60%
- Activity [5]: >60%
- Activity [6]: >60%
- Activity [7]: >60%
- Activity [8]: >60%
- Activity [9]: >60%

SMILES: CCCCCc1ccc(C(=O)NCCn2cc(CCCCCc3c[nH]c(N)n3)nn2)cc1
- IC50 [25]: 15.2 to 34 µM
- IC50 [11]: 15.2 to 34 µM

SMILES: CCOC(=O)/C(=N/Nc1ccccc1)C(C)=O
- IC50 [2]: 192 µM
